Assay results reported in ChEMBL document CHEMBL4138123, “Design, synthesis and biological evaluation of novel pyrazolochalcones as potential modulators of PI3K/Akt/mTOR pathway and inducers of apoptosis in breast cancer cells” (Eur J Med Chem, 2017).

How the values were obtained:
SW-620 [1] = assay: Cytotoxicity against human SW620 cells assessed as growth inhibition after 48 hrs by sulforhodamine B assay; format: functional; conditions: SW-620, 48 h
OVCAR-5 = assay: Cytotoxicity against human OVCAR5 cells assessed as cell growth at 1 uM after 48 hrs by sulforhodamine B assay relative to control; format: functional; conditions: OVCAR-5, 48 h, read-out: Activity
OVCAR-4 = assay: Cytotoxicity against human OVCAR4 cells assessed as cell growth at 0.01 uM after 48 hrs by sulforhodamine B assay relative to control; format: functional; conditions: OVCAR-4, 48 h, read-out: Activity
HCT-116 = assay: Cytotoxicity against human HCT116 cells assessed as cell growth at 0.01 uM after 48 hrs by sulforhodamine B assay relative to control; format: functional; conditions: HCT-116, 48 h, read-out: Activity
KM12 [2] = assay: Cytotoxicity against human KM12 cells assessed as cell growth at 0.1 uM after 48 hrs by sulforhodamine B assay relative to control; format: functional; conditions: KM12, 48 h, read-out: Activity
RPMI-8226 [3] = assay: Cytotoxicity against human RPMI8226 cells assessed as cell growth at 0.1 uM after 48 hrs by sulforhodamine B assay relative to control; format: functional; conditions: RPMI-8226, 48 h, read-out: Activity
UACC-62 [4] = assay: Cytotoxicity against human UACC62 cells assessed as cell growth at 100 uM after 48 hrs by sulforhodamine B assay relative to control; format: functional; conditions: UACC-62, 48 h, read-out: Activity
NCI-H322M [5] = assay: Cytotoxicity against human NCI-H322M cells assessed as cell growth at 100 uM after 48 hrs by sulforhodamine B assay relative to control; format: functional; conditions: read-out: Activity
DU-145 [6] = assay: Cytotoxicity against human DU145 cells assessed as cell growth at 10 uM after 48 hrs by sulforhodamine B assay relative to control; format: functional; conditions: DU-145, 48 h, read-out: Activity
U-251 = assay: Cytotoxicity against human U251 cells assessed as cell growth at 100 uM after 48 hrs by sulforhodamine B assay relative to control; format: functional; conditions: U-251, 48 h, read-out: Activity
SK-MEL-28 = assay: Cytotoxicity against human SK-MEL-28 cells assessed as cell growth at 100 uM after 48 hrs by sulforhodamine B assay relative to control; format: functional; conditions: SK-MEL-28, 48 h, read-out: Activity
K562 [7] = assay: Cytotoxicity against human K562 cells assessed as growth inhibition after 48 hrs by sulforhodamine B assay; format: functional; conditions: K562, 48 h
786-0 = assay: Cytotoxicity against human 786-0 cells assessed as cell growth at 10 uM after 48 hrs by sulforhodamine B assay relative to control; format: functional; conditions: 786-0, 48 h, read-out: Activity
ACHN = assay: Cytotoxicity against human ACHN cells assessed as growth inhibition after 48 hrs by sulforhodamine B assay; format: functional
OVCAR-8 = assay: Cytotoxicity against human OVCAR8 cells assessed as cell growth at 100 uM after 48 hrs by sulforhodamine B assay relative to control; format: functional; conditions: OVCAR-8, 48 h, read-out: Activity
SW-620 [8] = assay: Cytotoxicity against human SW620 cells assessed as cell growth at 100 uM after 48 hrs by sulforhodamine B assay relative to control; format: functional; conditions: SW-620, 48 h, read-out: Activity
HCT-15 = assay: Cytotoxicity against human HCT15 cells assessed as cell growth at 0.1 uM after 48 hrs by sulforhodamine B assay relative to control; format: functional; conditions: HCT-15, 48 h, read-out: Activity
K562 [9] = assay: Cytotoxicity against human K562 cells assessed as cell growth at 0.1 uM after 48 hrs by sulforhodamine B assay relative to control; format: functional; conditions: K562, 48 h, read-out: Activity
SW-620 [10] = assay: Cytotoxicity against human SW620 cells assessed as cell growth at 1 uM after 48 hrs by sulforhodamine B assay relative to control; format: functional; conditions: SW-620, 48 h, read-out: Activity
SK-OV-3 = assay: Cytotoxicity against human SKOV3 cells assessed as cell growth at 10 uM after 48 hrs by sulforhodamine B assay relative to control; format: functional; conditions: SK-OV-3, 48 h, read-out: Activity
RPMI-8226 [11] = assay: Cytotoxicity against human RPMI8226 cells assessed as cell growth at 1 uM after 48 hrs by sulforhodamine B assay relative to control; format: functional; conditions: RPMI-8226, 48 h, read-out: Activity
MCF7 = assay: Cytotoxicity against human MCF7 cells assessed as growth inhibition after 48 hrs by MTT assay; format: functional, cell-based; conditions: MCF7, 48 h
BT-549 = assay: Cytotoxicity against human BT549 cells assessed as cell growth at 10 uM after 48 hrs by sulforhodamine B assay relative to control; format: functional; conditions: BT-549, 48 h, read-out: Activity
NCI-H322M [12] = assay: Cytotoxicity against human NCI-H322M cells assessed as cell growth at 0.1 uM after 48 hrs by sulforhodamine B assay relative to control; format: functional; conditions: read-out: Activity
DU-145 [13] = assay: Cytotoxicity against human DU145 cells assessed as cell growth at 100 uM after 48 hrs by sulforhodamine B assay relative to control; format: functional; conditions: DU-145, 48 h, read-out: Activity
UACC-62 [14] = assay: Cytotoxicity against human UACC62 cells assessed as cell growth at 0.01 uM after 48 hrs by sulforhodamine B assay relative to control; format: functional; conditions: UACC-62, 48 h, read-out: Activity
HL-60(TB) = assay: Cytotoxicity against human HL-60(TB) cells assessed as cell growth at 0.1 uM after 48 hrs by sulforhodamine B assay relative to control; format: functional; conditions: HL-60, 48 h, read-out: Activity
SF-268 = assay: Cytotoxicity against human SF268 cells assessed as cell growth at 1 uM after 48 hrs by sulforhodamine B assay relative to control; format: functional; conditions: SF-268, 48 h, read-out: Activity
PC-3 = assay: Cytotoxicity against human PC3 cells assessed as cell growth at 0.1 uM after 48 hrs by sulforhodamine B assay relative to control; format: functional; conditions: PC-3, 48 h, read-out: Activity
SF-539 = assay: Cytotoxicity against human SF539 cells assessed as cell growth at 1 uM after 48 hrs by sulforhodamine B assay relative to control; format: functional; conditions: SF-539, 48 h, read-out: Activity
NCI-H23 = assay: Cytotoxicity against human NCI-H23 cells assessed as cell growth at 0.01 uM after 48 hrs by sulforhodamine B assay relative to control; format: functional; conditions: NCI-H23, 48 h, read-out: Activity
RPMI-8226 [15] = assay: Cytotoxicity against human RPMI8226 cells assessed as growth inhibition after 48 hrs by sulforhodamine B assay; format: functional; conditions: RPMI-8226, 48 h
MDA-MB-435 [16] = assay: Cytotoxicity against human MDA-MB-435 cells assessed as cell growth at 0.01 uM after 48 hrs by sulforhodamine B assay relative to control; format: functional; conditions: MDA-MB-435, 48 h, read-out: Activity
SN12C = assay: Cytotoxicity against human SN12C cells assessed as cell growth at 1 uM after 48 hrs by sulforhodamine B assay relative to control; format: functional; conditions: read-out: Activity
MDA-MB-435 [17] = assay: Cytotoxicity against human MDA-MB-435 cells assessed as cell growth at 1 uM after 48 hrs by sulforhodamine B assay relative to control; format: functional; conditions: MDA-MB-435, 48 h, read-out: Activity
KM12 [18] = assay: Cytotoxicity against human KM12 cells assessed as cell growth at 10 uM after 48 hrs by sulforhodamine B assay relative to control; format: functional; conditions: KM12, 48 h, read-out: Activity

COc1ccc(-c2cc(/C=C/C(=O)c3ccc(N)cc3)[nH]n2)cc1OC
GI50 (SW-620 [1]): 2.5 µM | LC50 (lethal concentration, 50% net cell kill) (SW-620 [1]): 82.9 µM | TGI (SW-620 [1]): 6.94 µM | growth at 1 µM (OVCAR-5): 94% | growth at 0.01 µM (OVCAR-4): 85% | growth at 0.01 µM (HCT-116): 96% | growth at 0.1 µM (KM12 [2]): 104% | growth at 0.1 µM (RPMI-8226 [3]): 96% | growth at 100 µM (UACC-62 [4]): -86% | growth at 100 µM (NCI-H322M [5]): -88% | growth at 10 µM (DU-145 [6]): 15% | growth at 100 µM (U-251): -96% | growth at 100 µM (SK-MEL-28): -93% | GI50 (K562 [7]): 2.03 µM | LC50 (concentration killing 50% of cells) (K562 [7]): > 100 µM | TGI (K562 [7]): 36.4 µM | growth at 10 µM (786-0): -48% | GI50 (ACHN): 1.67 µM | LC50 (ACHN): 6.48 µM | TGI (ACHN): 3.29 µM | growth at 100 µM (OVCAR-8): -86% | growth at 100 µM (SW-620 [8]): -53% | growth at 0.1 µM (HCT-15): 95% | growth at 0.1 µM (K562 [9]): 98% | growth at 1 µM (SW-620 [10]): 95% | growth at 10 µM (SK-OV-3): 29% | growth at 1 µM (RPMI-8226 [11]): 59% | IC50 (MCF7): 1.9 µM | growth at 10 µM (BT-549): -91% | growth at 0.1 µM (NCI-H322M [12]): 102% | growth at 100 µM (DU-145 [13]): -100% | growth at 0.01 µM (UACC-62 [14]): 99% | growth at 0.1 µM (HL-60(TB)): 104% | growth at 1 µM (SF-268): 88% | growth at 0.1 µM (PC-3): 95% | growth at 1 µM (SF-539): 88% | growth at 0.01 µM (NCI-H23): 103% | GI50 (RPMI-8226 [15]): 1.28 µM | LC50 (RPMI-8226 [15]): > 100 µM | TGI (RPMI-8226 [15]): 5.52 µM | growth at 0.01 µM (MDA-MB-435 [16]): 91% | growth at 1 µM (SN12C): 93% | growth at 1 µM (MDA-MB-435 [17]): 94% | growth at 10 µM (KM12 [18]): -79%
